The test system of experiment [1] is O-2A/OPCs. In words: Intracellular ROS / redox state measurement. Type of experiment: cell-based, rat. The conditions noted are these: O-2A/OPCs in PDGF; MeHg, exposure levels as low as 20 nM. The protocol: Cells were plated in 96-well microplates and grown to about 60% continence. […] Cells were then washed once with HBSS and growth medium to remove free probe. Then, fresh growth medium was added and a baseline fluorescence reading was taken prior to treatment. For NAC pre-treatment. […] Fluorescence was measured in a Wallac 1420 Victor2 multilabel counter (PerkinElmer) using excitation and emission wavelengths of 485 nm and 535 nm, respectively, at different time courses as indicated in the figures. Results are presented as the value change from baseline by the formula (Ftexp−Ftbase)/Ftbase normalized with the control group, where Ftexp=fluorescence at any given time during the experiment in a give well and Ftbase=baseline fluorescence of the same well.

The test system of experiment [2] is O-2A/OPCs. In words: In vivo BrdU incorporation assay with Olig2 co-labeling, corpus callosum. On the set-up: species or system mice. The conditions noted are these: low-level MeHg in maternal drinking water, P14. The protocol: To analyze DNA synthesis in vivo, mice were injected with a single dose of 5-BrdU (50 mg/kg body weight), dissolved in 0.9% NaCl, filtered (0.2 μm), and applied intraperitoneally 2 h prior to perfusion. After removal and sectioning of brains, 40-μm free-floating sections were incubated for 2 h in 50% forraamide/2×SSC (0.3 M NaCl and 0.03 M sodium citrate) at 65° C., rinsed twice for 5 min each in 2×SSC, incubated for 30 min in 2N HCl at 37° C., and rinsed for 10 min in 0.1 M boric acid (pH 8.5) at room temperature. Several rinses in TBS were followed by incubation in TBS/0.1% Triton X-100/3% donkey serum (TBS-plus) for 30 min. Sections were then incubated with monoclonal rat anti-BrdU antibody (1:2,500; Harlan Sera-Lab, Loughborough, United Kingdom) and polyclonal rabbit anti-Olig2 in TBS-plus for 48 h at 4° C. […]
Quantification of BrdU+ cells was accomplished with unbiased counting methods by confocal microscopy. BrdU immunoreaetive nuclei were counted in one focal plane to avoid over-sampling. In corpus callosum, BrdU+ cells were counted in every sixth section (40 μm) from a coronal, series between interaural AP+5.2 mm and AP+3.0 mm in the entire extension of the rostral and medial part of the corpus callosum. Quantitative data are presented as mean percentage normalized to control animals. […]

Experiment [3] has as its system EGFR. In words: EGFR levels in brain tissue after developmental exposure. The conditions noted are these: 100 or 250 ppb MeHg in maternal drinking water; 7 and 21 d after birth. The class given is in vivo, SJL mice. The source says:
(§1) Anti-phosphorylated Erk monoclonal, anti-Erk monoclonal, anti-TrkC polyclonal anti-Fyn polyclonal, anti-EGFR polyclonal, anti-c-Met polyclonal, anti-phospho-tyrosine monoclonal, and anti-PDGFRα polyclonal antibodies were obtained from Santa Cruz Biotechnology (Santa Cruz, Calif., United States). Anti-c-Cbl monoclonal antibody was obtained from BD PharMingen (San Diego, Calif., United States). Anti-phosphorylated Akt monoclonal and anti-Akt polyclonal antibodies were obtained from Cell Signaling Technology (Beverly, Mass., United States). Anti-phosphorylated PDGPRα polyclonal antibody was obtained from Biosource (Carlsbad, Calif., United States). The cell culture samples were collected and lysed in RAPI buffer, whereas dissected tissue samples were sonicated in RAPI buffer. Samples were resolved on SDS-PAGE gels and transferred to PVDF membranes (PerkinElmer Life Science. Wellesley, Mass., United States), After being blocked in 5% skim milk in PBS containing 0.1% Tween 20, membranes were incubated with a primary antibody, followed by incubation with an HRP-conjugated secondary antibody (Santa Cruz Biotechnology). Membranes were visualized using Western Blotting Luminol Reagent (Santa Cruz Biotechnology). […]

The test system of experiment [4] is NF-κB-luciferase reporter. Briefly: NF-κB-luciferase reporter assay. The class given is cell-based, rat. The protocol:
Cells were deprived of PDGF-AA for 5 h before re-exposure to PDGF-AA (10 ng/ml) for 1 h for Western blot or 6 h for luciferase assays of pathway activation. Transient transfection was performed using Fugene6 (Roche, Basel, Switzerland ) transfection solution according to the manufacturer's protocol. For the luciferase assay, cells seeded in 12-well plates were transfected with a reporter plasmid SRE-Luc(firefly) or NF-κB-Luc(firefly) (BD-Clontech, Palo Alto, Calif., United States) and an internal control plasmid pRLSV40-LUC. Analyses of luciferase activity were performed according to the protocol of the Dual Luciferase Assay System (Promega, Madison, Wis., United States), which uses an internal control of Renilla luciferase for quantification, and relative light units were measured using a luminometer.
(In general: In a reporter assay the amount or activity of a reporter protein is the signal.)

Experiment [5] relates to PDGFRα. In words: PDGFRα levels in brain tissue after developmental exposure. The conditions noted are these: 100 or 250 ppb MeHg in maternal drinking water; cerebellum, hippocampus, corpus callosum; 7 and 21 d after birth. The class given is in vivo, SJL mice.
Description: as §1

Experiment [6] concerns TrkC. Type of experiment: cell-based, rat. To be noted: MeHg, Pb or paraquat. The method, boiled down: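 Western blot of cell lysates or sonicated tissue in RAPI buffer, SDS-PAGE to PVDF, primary antibodies (phospho-Erk, phospho-Akt, receptor, phospho-tyrosine), HRP secondary and luminol detection. Signaling analysed in presence of the cognate ligand: EGF for EGFR, NT-3 for TrkC, HGF for c-Met.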

Experiment [7] concerns Fyn. Type of experiment: cell-based, rat.
Experiment [8] has as its system MDA-MB-231 cell. Briefly: MDA-MB-231 cell division by BrdU incorporation. The conditions noted are these: NAC 1 mM or PP1 200 nM with 20 μM tamoxifen, 48 hours. The class given is cell-based. The protocol:
It has been reported that c-Cbl induced down-regulation of EGFR is disabled in cancer cells (Hirsch DS, Shen. Y, Wu WJ, (2006) Cancer Res. Apr 1;66(7):3523-30). Thus, growth and motility inhibition of breast cancer cells by EGFR degradation is correlated with inaetivation of Cdc42. […] Cells were cultured in phenol red-free growth media and exposed to TMX (0, 1 μM, 10 μM, 20 μM and 50 μM) for 48 hours, with or without 1 mM NAC. In FIG. 22C. MDA-MB-231 cell division was analyzed by BrdU incorporation analysis. […] Percentage of Brdu+ cells from DAPI+ cells was determined in each sample.
In general terms: Dividing cells build labelled thymidine or BrdU into new DNA.

For experiment [9], the system named is cancer cells. In words: Cancer cell viability (MTT assays), FIG. 22. The class given is cell-based. The conditions noted are these: TMX 1-50 μM, 48 hours. A general note: Tetrazolium assays rely on reduction of a dye to a coloured formazan, in cell work by metabolically active cells.

For `[CH3][Hg][Cl]` [MeHg, methylmercury], the “cells more oxidized (intracellular redox state)” value in experiment [1] is on record as “approximately 20%”. Further, the “reduction in the number of total BrdU+ cells” value in experiment [2] is listed as 20%. Also, in [3], the “levels of EGFR in brain” value was “clear and significant reductions”. The “PDGF-induced NF-κB-luciferase reporter expression” value in experiment [4] (30 nM MeHg, 24 h) is on record as “decreased”. In [5], the “levels of PDGFRα in brain” value was “clear and significant reductions”. Moreover, the “levels of TrkC after toxicant exposure” value in experiment [6] is recorded as “no reduction in levels of TrkC”.

On to `CC(=O)N[C@@H](CS)C(=O)O` [NAC, N-acetyl-L-cysteine], for which, in experiment [7] (co-exposure to NAC), the “effect on EtOH-induced Fyn phosphorylation” value is “blocked”. Also, the “effect on Aβ-induced increase in phosphorylated Fyn” value in experiment [7] (co-exposure with Aβ) was “reversed”. For the same molecule, the “effect on MeHg suppression of Nf-κB reporter activity” value in experiment [4] (1 mM NAC with MeHg) is recorded as “rescued normal level”. Moreover, the “rescue from tamoxifen effect on cell division” value in [8] is on record as “did not result in any rescue effect”. The “effect on TMX effects on cancer cells” value in experiment [9] is “not blocked”.

(Values after US20080171710A1, “The Redox/Fyn/c-Cbl Pathway” (priority 2007, published 2008).)
